Patent US7223793B2, “Phenolic acid derivatives and composition for preventing or treating blood lipid level-related diseases comprising the same” (Bionutrigen Co., Ltd., priority 2001, dated 2007)

Tests used:
Sprague-Dawley rats = experiment: Effect on hyperlipemia in rats fed high-cholesterol diet (Experimental Example 6); type: in vivo, rat; details: rats on 1% cholesterol diet, 6 weeks; for Atherogenic index (AI): (total cholesterol − HDL cholesterol)/HDL cholesterol; for HDL-cholesterol / Neutral fat / Total cholesterol: 0.02% lovastatin, 0.039% BN30063, 0.040% BN30064, 0.041% BN30067 in diet; for HDL-cholesterol / Neutral fat / Total cholesterol / HDL-cholesterol/total cholesterol: average
Excerpt: 50 of 4-week-old male white Sprague-Dawley rats (Bio Genomics Inc., Korea), each weighing about 90 to 110 g, were divided into five groups by a randomized block design. The rats of the five groups were fed with five different high-cholesterol diets, i.e., AIN-76 laboratory animal diets (TEKLAD premier Co., Madison, Wis., U.S.A.) containing 1% cholesterol (Control group), 1% cholesterol plus 0.02% lovastatin (Choongwae Pharma. Corp., Korea), 1% cholesterol plus 0.039% BN30063, 1% cholesterol plus 0.040% BN30064, and 1% cholesterol plus 0.041% BN30067, respectively, as shown in Table VII.
The animals were allowed free access to the specified diets and water for 6 weeks and the ingestion amounts were recorded daily. The rats were weighed every 7 days, and then the record was analyzed.
Blood samples were taken from vena hypogastrica of the rats of the five dietary groups raised for six weeks in Step 1. The blood was allowed to stand for 2 hours and centrifuged at 3,000 rpm for 15 minutes and the supernatant containing serum was separated and stored in a deep freezer before use. The total cholesterol level was measured using a diagnosis kit purchased from Sigma, Cat. No.: C0534, applying the method of Allain et al. (Allain et al., Clin. Chem., 20, 470-475 (1974)). The HDL fraction was separated using a kit purchased from Sigma, Cat. No.: 352-1 applying the heparin-manganese precipitation method (Waenic R. G. and Albers J. J., J Lipid Res., 19, 65-76 (1978)) and the HDL-cholesterol level was measured using a kit purchased from Sigma, Cat. No.: C9908. The neutral fat level was measured using a kit purchased from Sigma, Cat. No.: 336-10) applying the lipase-glycerol phosphate oxidase method (McGowan, M. W. et al., Clin. Chem., 29, 538-542(1983)).

HMG-CoA reductase = molecular target: T1, HMG-CoA reductase (Rattus norvegicus, UniProt P51639); experiment: HMG-CoA reductase activity in liver microsomes of treated rats (Experimental Example 6, Step 4); type: in vivo; design: HMG-CoA reductase: unit not given here; details: for HMG-CoA reductase: activity in liver microsomes of rats fed 6 weeks, CoA-SH by absorbance at 412 nm, average; for Inhibition of HMG-CoA reductase activity: liver microsomes of rats fed 6 weeks, relative to control group
T1 construct: the supernatant was ultracentrifuged (100,000×g for 60 minutes) to obtain microsomal precipitates; from tissue; host or cells: liver microsomes of treated rats
T1 sequence (P51639 1-887): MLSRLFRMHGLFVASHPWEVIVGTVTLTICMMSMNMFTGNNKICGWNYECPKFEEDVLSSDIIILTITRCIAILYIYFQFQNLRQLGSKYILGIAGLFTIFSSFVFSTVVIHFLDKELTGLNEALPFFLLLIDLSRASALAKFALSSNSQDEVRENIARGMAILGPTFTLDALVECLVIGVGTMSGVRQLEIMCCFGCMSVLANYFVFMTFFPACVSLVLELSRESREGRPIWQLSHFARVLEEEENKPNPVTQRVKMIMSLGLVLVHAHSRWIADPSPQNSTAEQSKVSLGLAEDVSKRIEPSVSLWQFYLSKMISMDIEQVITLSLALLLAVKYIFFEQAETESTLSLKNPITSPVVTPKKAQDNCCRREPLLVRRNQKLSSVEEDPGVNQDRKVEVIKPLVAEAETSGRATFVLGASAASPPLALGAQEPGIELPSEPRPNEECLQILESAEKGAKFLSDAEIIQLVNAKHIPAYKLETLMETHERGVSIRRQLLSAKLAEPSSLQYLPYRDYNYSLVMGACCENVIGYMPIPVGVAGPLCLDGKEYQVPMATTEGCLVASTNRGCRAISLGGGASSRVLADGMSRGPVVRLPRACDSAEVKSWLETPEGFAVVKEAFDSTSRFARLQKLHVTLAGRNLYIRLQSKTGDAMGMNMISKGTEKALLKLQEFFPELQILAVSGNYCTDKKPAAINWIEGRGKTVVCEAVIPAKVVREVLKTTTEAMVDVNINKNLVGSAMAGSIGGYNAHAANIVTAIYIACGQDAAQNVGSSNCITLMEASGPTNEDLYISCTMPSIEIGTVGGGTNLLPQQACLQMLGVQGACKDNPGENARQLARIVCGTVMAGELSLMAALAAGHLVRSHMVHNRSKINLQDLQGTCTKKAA
Method: In order to measure the activity of HMG-CoA reductase, the method described by Hulcher et al. (J. Lipid Res., 14, 625-641 (1973)) was employed after some modification. In this method, the concentration of the coenzyme-A (CoA-SH), which is produced when HMG-CoA is reduced to a mevalonate salt by the action of HMG-CoA reductase, is determined by spectroscopy and the activity of HMG-CoA reductase is calculated therefrom.
3 g of liver tissue taken from each sacrificed rat of Step 2 was washed successively with 100 ml of a cold Saline (0.15M NaCl) and 100 ml of a cold buffer solution A (0.1M triethanolamine, HCl/0.2M EDTA/2 mM dithiothreitol). The cold buffer solution A was added to the liver tissue in an amount of 2 ml per 1 g of the liver tissue and the mixture was homogenized with a homogenizer. The homogenate was centrifuged (15,000×g for 15 minutes), and then, the supernatant was ultracentrifuged (100,000×g for 60 minutes) to obtain microsomal precipitates. The precipitates thus obtained were washed with 2 mL of a cold buffer solution A and ultracentrifuged (100,000×g for 60 minutes) to obtain precipitates. The precipitates thus obtained were washed with a 1 mL of cold buffer solution A and kept in a 1.5 mL tube at −70° C.
The reaction substrates used in the measurement of HMG-CoA reductase activity were as follows:
i) buffer solution B: 0.1M triethanolamine, HCl/0.02M EDTA (pH7.4),
ii) HMG-CoA solution: 150 mmoles/culture medium, and
iii) NADPH solution: 2 mmoles/culture medium.
The suspension (microsome) prepared in the above was mixed with the reaction substrate and the resulting mixture was placed in a centrifugation tube and reacted at 37° C. for 30 minutes. The reaction mixture was treated with 20 μl of 0.1M sodium arsenite and allowed to stand for 1 minute. Then, the mixture was reacted with 100 μl of citrate buffer solution (2M citrate/3% sodium tungstate, pH 3.5) at 37° C. for 10 minutes followed by centrifugation (25,000×g for 15 minutes) to remove protein. 1 mL of the supernatant thus obtained was transferred into a tube with a cap and 0.2 mL of 2M tris-HCl solution (pH 10.6) and 0.1 ml of 2M tris-HCl solution (pH 8.0) were added thereto to adjust the pH of the reaction to 8.0. Then, the reaction was mixed with 20 μl of DTNB buffer solution (3mM DTNB/0.1M triethanolamine/0.2M EDTA, pH 7.4) and the absorbance of the mixture was determined at 412 nm to calculate the amount of CoA-SH (activity of HMG-COA reductase). The inhibition of HMG-CoA reductase activity of the control and treated groups were calculated based on the above results.

Row | Structure (SMILES) | Atherogenic index (AI) (Sprague-Dawley rats) | Increase of HDL-cholesterol to total cholesterol as compared to the control group (Sprague-Dawley rats) | Reduction of atherogenic index as compared to the control group (Sprague-Dawley rats) | Reduction of neutral fat level as compared to the control group (Sprague-Dawley rats) | Reduction of total plasma cholesterol level as compared to the control group (Sprague-Dawley rats) | HDL-cholesterol (Sprague-Dawley rats) | Neutral fat (Sprague-Dawley rats) | Total cholesterol (Sprague-Dawley rats) | HDL-cholesterol/total cholesterol (Sprague-Dawley rats) | HMG-CoA reductase (HMG-CoA reductase) | Inhibition of HMG-CoA reductase activity (HMG-CoA reductase)
1 | COC(=O)C(CO)NC(=O)CCc1ccc(O)c(O)c1 (stereo not drawn) [BN30063, 2-[3-(3,4-dihydroxyphenyl)propionylamino]-3-hydroxy propionic acid methyl ester] | 1.39 | 78.28% | 57.75% | 49.41% | 29.8% | 28.97 mg/dL | 52.31 mg/dL | 68.06 mg/dL | 43.25% | 196.11 | 20.09%
2 | CC(C)CC(NC(=O)CCc1ccc(O)c(O)c1)C(=O)O (stereo not drawn) [BN30064, 2-[3-(3,4-dihydroxyphenyl)propionylamino]-4-methyl pentanoic acid] | 1.61 | 68.10% | 51.06% | 29.35% | 21.92% | 28.49 mg/dL | 73.07 mg/dL | 75.71 mg/dL | 40.78% | 124.74 | 
3 | O=C(O)CC(NC(=O)CCc1ccc(O)c(O)c1)C(=O)O (stereo not drawn) [BN30067, 2-[3-(3,4-dihydroxyphenyl)propionylamino]-succinic acid] | 1.96 | 42.70% | 40.43% | 63.87% | 27.82% | 23.81 mg/dL | 37.37 mg/dL | 69.99 mg/dL | 34.62% | 136.15 | 
4 | CC[C@H](C)C(=O)O[C@H]1C[C@@H](C)C=C2C=C[C@H](C)[C@H](CC[C@@H]3C[C@@H](O)CC(=O)O3)[C@H]21 [Lovastatin, reference compound] | 2.58 | 20% | 21.58% | 18.92% | 10% | 24.83 mg/dL | 83.85 mg/dL | 86.51 mg/dL | 29.13% | 173.25 | 29.40%
